The target of data set [1] is T1, α7-nAChR (Homo sapiens, UniProt P36544). Conditions: read-out: α7-nAChR, Ki, cited from earlier work.
Data set [2] has as its target T2, α7-nAChR (Mus musculus, UniProt P49582). The settings on record: in vivo; cited from earlier work.
The target of data set [3] is T2, α7-nAChR. Conditions: in vivo.
The target in data set [4] is α7-nAChR (Rattus norvegicus, UniProt Q05941). In words: biochemical. The class given is binding.
The target in data set [5] is T2, α7-nAChR. Conditions: in vivo. The source holds these as a separate data set.
Data set [6] concerns the target T2, α7-nAChR. Also noted: The brains were rapidly removed and dissected on ice; tissue Charles River Laboratories; host or cells: brain of live male CD-1 mice; species or system CD-1 mice. Conditions: in vivo.
For data set [7], the target named is T2, α7-nAChR. In words: Blockade of [18F]ASEM in CD1 mice with mouse-equivalent doses of clinical α7-nAChR drugs. In kind it is in vivo. Also noted: The brains were rapidly removed and dissected on ice; tissue Charles River Laboratories; host or cells: brain of live male CD-1 mice.
The target of data set [8] is α2β2-nAChR (Rattus norvegicus, UniProt P12389+P12390). In words: Heteromeric nAChR binding assay, transfected HEK293 membranes, [3H]epibatidine.
Chain of α2β2-nAChR (P12389 28-511): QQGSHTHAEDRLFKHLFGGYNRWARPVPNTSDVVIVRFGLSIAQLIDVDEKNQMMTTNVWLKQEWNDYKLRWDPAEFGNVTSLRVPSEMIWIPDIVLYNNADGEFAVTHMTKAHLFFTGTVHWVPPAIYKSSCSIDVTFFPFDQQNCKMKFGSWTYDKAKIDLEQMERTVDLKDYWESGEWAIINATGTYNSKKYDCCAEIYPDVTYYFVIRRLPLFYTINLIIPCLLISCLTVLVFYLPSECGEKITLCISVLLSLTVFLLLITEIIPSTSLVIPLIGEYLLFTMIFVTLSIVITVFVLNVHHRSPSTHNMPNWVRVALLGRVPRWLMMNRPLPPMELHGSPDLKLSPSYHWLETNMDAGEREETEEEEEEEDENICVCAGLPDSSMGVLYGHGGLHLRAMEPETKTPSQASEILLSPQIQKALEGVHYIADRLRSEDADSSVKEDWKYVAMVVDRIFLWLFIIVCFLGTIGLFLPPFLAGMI
Chain of α2β2-nAChR (P12390 25-500): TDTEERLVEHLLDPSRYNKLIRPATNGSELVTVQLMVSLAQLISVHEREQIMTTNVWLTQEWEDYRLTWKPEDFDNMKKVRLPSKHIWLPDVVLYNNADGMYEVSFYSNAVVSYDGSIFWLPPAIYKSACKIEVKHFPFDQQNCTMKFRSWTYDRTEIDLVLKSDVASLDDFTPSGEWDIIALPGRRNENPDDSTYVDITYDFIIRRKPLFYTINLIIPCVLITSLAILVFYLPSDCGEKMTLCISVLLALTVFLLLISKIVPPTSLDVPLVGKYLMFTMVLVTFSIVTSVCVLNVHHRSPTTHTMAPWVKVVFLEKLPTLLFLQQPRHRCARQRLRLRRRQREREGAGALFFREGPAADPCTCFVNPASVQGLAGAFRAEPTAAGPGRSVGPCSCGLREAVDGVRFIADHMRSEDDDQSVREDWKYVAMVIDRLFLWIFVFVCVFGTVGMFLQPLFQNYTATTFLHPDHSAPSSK
The target of data set [9] is T3, α2β4-nAChR (Rattus norvegicus, UniProt P12389+P12392).
T3 construct: expressed in transfected cells
T3 sequence (P12389 28-511): as the sequence (P12389 28-511) above
T3 sequence (P12392 21-495): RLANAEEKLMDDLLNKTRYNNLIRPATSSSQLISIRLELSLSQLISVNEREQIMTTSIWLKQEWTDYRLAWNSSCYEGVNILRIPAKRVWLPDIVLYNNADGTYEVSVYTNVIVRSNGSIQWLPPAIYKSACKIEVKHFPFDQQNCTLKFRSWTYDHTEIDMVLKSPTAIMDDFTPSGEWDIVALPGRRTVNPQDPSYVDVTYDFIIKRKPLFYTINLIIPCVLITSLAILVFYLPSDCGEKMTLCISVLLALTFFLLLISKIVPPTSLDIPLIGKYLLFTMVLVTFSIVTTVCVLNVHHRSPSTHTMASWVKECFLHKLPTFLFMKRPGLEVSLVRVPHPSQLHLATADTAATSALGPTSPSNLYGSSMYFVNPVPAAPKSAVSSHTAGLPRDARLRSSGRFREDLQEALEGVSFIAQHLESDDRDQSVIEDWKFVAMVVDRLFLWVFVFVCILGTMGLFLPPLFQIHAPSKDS
Described as above.

The target of data set [10] is α3β2-nAChR (Rattus norvegicus, UniProt P04757+P12390). Described as above.
Chain of α3β2-nAChR (P04757 26-499): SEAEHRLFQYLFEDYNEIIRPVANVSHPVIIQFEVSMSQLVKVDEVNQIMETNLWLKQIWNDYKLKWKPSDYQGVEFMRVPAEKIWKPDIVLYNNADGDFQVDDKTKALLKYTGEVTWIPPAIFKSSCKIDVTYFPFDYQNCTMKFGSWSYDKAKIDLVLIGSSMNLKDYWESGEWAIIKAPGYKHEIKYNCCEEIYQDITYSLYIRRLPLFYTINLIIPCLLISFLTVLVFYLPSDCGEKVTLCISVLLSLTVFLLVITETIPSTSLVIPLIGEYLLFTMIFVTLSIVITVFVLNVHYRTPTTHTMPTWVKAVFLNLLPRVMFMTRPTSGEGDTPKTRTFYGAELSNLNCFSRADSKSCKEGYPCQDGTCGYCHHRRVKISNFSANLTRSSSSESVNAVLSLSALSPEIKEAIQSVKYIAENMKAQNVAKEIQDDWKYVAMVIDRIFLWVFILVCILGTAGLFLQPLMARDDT
Chain of α3β2-nAChR (P12390 25-500): as the sequence (P12390 25-500) above
Data set [11] concerns the target T4, α3β4-nAChR (Rattus norvegicus, UniProt P04757+P12392).
T4 construct: expressed in transfected cells
The data set is described as above.

Data set [12] addresses α4β2-nAChR (Rattus norvegicus, UniProt P09483+P12390). The data set is described as above.
Data set [13] has as its target T5, α4β4-nAChR (Rattus norvegicus, UniProt P09483+P12392).
T5 construct: expressed in transfected cells
The description is as above.

Data set [14] has as its target T2, α7-nAChR. Conditions: drugs 2 mg/kg sc, 10 min before radiotracer, 90 min.
For data set [15], the target named is T6, Human 5-HT3 (Homo sapiens, UniProt P46098).
T6 sequence (P46098 24-478): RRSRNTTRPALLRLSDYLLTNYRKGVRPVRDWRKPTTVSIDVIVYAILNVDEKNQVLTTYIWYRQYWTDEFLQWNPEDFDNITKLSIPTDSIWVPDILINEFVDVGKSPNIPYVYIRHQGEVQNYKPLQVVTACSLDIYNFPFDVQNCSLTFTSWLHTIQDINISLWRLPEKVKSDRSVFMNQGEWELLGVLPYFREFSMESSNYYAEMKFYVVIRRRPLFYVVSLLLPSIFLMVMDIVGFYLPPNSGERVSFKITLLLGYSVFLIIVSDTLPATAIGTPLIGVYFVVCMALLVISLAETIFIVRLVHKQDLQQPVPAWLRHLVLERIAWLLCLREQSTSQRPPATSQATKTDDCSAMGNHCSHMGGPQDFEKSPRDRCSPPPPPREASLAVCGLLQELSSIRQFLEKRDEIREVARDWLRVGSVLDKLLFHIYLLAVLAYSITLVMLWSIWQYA
In words: 5-HT3(h) binding assay, recombinant HEK293 cells, [3H]GR65630.

Data set [16] has as its target T1, α7-nAChR. The settings on record: read-out: Ki α7-nAChR (literature); cited from earlier work.
Data set [17] addresses T2, α7-nAChR. Also noted: The brains were rapidly removed and dissected on ice; tissue Charles River Laboratories; host or cells: brain of live male CD-1 mice; species or system CD-1 mice. The settings on record: in vivo. The source holds these as a separate data set.
The mark [18] stands for this setting: previously published values, varied assay conditions.
The mark [19] stands for this setting: stably transfected HEK293 cells, [3H]epibatidine (0.5 nM).

“And” between values parts separate entries of the source, which are not always exact repeats. Equal entries are not always repeated. Where two headings read alike, the source gives them in different places.

Chain of α7-nAChR (Rattus norvegicus, UniProt Q05941) (Q05941 23-502): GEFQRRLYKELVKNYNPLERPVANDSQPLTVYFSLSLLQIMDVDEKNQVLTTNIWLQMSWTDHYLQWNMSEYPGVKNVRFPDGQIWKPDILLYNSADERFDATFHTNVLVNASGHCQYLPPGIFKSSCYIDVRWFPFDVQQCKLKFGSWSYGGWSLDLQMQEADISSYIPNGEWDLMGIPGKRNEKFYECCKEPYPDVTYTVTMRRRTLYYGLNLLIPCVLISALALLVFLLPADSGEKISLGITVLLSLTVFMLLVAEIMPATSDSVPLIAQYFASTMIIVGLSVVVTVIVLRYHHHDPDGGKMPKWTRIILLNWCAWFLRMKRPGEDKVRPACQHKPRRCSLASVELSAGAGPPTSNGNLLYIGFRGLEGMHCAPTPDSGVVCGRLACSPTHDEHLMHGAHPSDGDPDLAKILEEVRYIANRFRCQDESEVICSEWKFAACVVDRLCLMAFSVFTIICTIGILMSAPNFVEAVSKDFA
T2 sequence (P49582 23-502): as the sequence (Q05941 23-502) above, with A402T counted along it
T4 sequence (P04757 26-499): as the sequence (P04757 26-499) above
T4 sequence (P12392 21-495): as the sequence (P12392 21-495) above
Chain of α4β2-nAChR (P09483 31-630): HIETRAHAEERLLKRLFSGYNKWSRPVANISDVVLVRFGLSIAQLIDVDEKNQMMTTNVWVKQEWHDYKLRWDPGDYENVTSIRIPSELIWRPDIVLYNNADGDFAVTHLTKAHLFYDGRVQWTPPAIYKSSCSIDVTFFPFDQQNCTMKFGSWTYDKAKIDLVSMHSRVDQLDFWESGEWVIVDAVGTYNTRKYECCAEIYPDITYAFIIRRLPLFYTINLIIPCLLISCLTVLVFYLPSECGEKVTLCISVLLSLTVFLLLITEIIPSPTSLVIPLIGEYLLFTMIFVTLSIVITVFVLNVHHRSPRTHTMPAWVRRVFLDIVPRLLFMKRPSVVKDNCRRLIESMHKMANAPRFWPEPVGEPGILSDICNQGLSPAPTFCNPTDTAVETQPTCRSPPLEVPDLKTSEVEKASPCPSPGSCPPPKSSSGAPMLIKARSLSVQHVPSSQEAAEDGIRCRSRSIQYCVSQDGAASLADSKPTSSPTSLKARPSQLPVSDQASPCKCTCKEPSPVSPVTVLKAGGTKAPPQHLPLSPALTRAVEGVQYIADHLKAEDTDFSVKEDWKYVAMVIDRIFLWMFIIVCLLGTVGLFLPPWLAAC
Chain of α4β2-nAChR (P12390 25-500): as the sequence (P12390 25-500) above
T5 sequence (P09483 31-630): as the sequence (P09483 31-630) above
T5 sequence (P12392 21-495): as the sequence (P12392 21-495) above
T1 sequence (P36544 23-502): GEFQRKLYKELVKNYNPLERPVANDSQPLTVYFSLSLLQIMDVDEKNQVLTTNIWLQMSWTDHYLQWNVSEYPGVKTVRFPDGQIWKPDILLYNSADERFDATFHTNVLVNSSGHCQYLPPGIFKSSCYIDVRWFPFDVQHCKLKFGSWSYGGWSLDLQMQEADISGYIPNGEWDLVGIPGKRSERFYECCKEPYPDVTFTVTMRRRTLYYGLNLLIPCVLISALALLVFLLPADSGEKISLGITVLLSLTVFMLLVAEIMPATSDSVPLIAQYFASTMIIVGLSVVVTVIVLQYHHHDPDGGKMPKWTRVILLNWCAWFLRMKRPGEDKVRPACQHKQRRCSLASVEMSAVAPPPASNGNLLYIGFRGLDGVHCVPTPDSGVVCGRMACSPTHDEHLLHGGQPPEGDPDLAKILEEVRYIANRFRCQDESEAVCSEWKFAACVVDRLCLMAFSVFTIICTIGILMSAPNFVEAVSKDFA

Usually Ki stands for the dissociation constant of the complex between target and ligand, obtained from inhibition or displacement. `[11CH3]N1CC2CN(c3ccc4c(c3)C(=O)C3C=CC=CC3O4)CC2C1` (centres unmarked): the Ki in data set [1] (setting [18]) was 11 nM.
For `[11CH3]N1CC2CN(c3ccc(-c4ccc5[nH]ccc5c4)nc3)CC21` (centres unmarked) [5-(5-(6-[(11)C]methyl-3,6-diazabicyclo[3.2.0]heptan-3-yl)pyridin-2-yl)-1H-indole], the “BPND in cortex, Mice” value in data set [2] is 1.9.
For `[18F]c1ccccc1-c1cnc2c(c1)CC1(CN3CCC1CC3)O2` (centres unmarked), the Ki in data set [1] was 0.2 nM. Moreover, the “BPND in cortex, Mice” value in data set [2] is recorded as 0.8.
Turning to `O=c1cccc2n1C[C@@H]1CNC[C@H]2C1` [cytisine], the “blockade of [18F]7a accumulation in mouse brain” value in [3] is “insignificant reduction of radioactivity accumulation in all regions studied”.
With `O=C(Oc1ccc([76Br])cc1)N1CCN2CCC1CC2`, the Ki in data set [1] (setting [18]) is 24.9 nM.
With `O=S1(=O)c2ccc([18F])cc2-c2ccc(N3CCN4CCC3CC4)cc21` [[^18F]7c, 4-(8-[^18F]fluorodibenzo[b,d]thiophen-3-yl)-1,4-diazabicyclo[3.2.2]nonane 5,5-dioxide], the Ki in data set [4] (Ki α7-nAChR (text)) was determined as 1.3 nM. Also, in data set [5], the baseline-to-blockade ratio is 5 and the specific binding value turned out to be 80%. In addition, in data set [6], the “Approximate BPND, Coll” value turned out to be 2.0 ± 0.5; the “Approximate BPND, Ctx” value stood at 2.0 ± 0.3; the “Approximate BPND, Hipp” value is 3.1 ± 0.7. Besides, in data set [6] (iv), the “ratios of tissues to cerebellum” value came to 4.5.
`[11CH3]c1ccc(OC(=O)N2CCN3CCC2CC3)cc1`: the “BPND in cortex, Mice” value in [2] is given as roughly 0.6.
As for `COc1ccc(/C=C2\CCCN=C2c2cccnc2)c(OC)c1` [DMXB-A, Dimethoxybenzylidene anabaseine], the “blockade of [18F]ASEM binding” value in data set [7] (3 mg/kg, cortex) is 40%; in [7] (3 mg/kg, hippocampus) it was 28%; in data set [7] (10 mg/kg, hippocampus, cortex, subcolliculus) it was 50-70%; in [7] (25 mg/kg, hippocampus, cortex, superior and inferior colliculus), 50-60%; in [7] (0.1, 0.3, and 1 mg/kg) it was “did not show significant blockade”.
Consider `[11CH3]n1cccc1-c1nnc(N2CCN3CCC2CC3)o1`, for which the Ki in [1] is 2.2 nM.
For the compound `O=S1(=O)c2ccc(I)cc2-c2ccc(N3CCN4CCC3CC4)cc21` [Compound 15, 7-(1,4-Diazabicyclo[3.2.2]nonan-4-yl)-2-iododibenzo[b,d]-thiophene 5,5-Dioxide], the Ki in [4] (read-out: Ki α7-nAChR) was 6.46 nM and 8.77 nM; in data set [8] it was 784 nM; in data set [9], 6 µM; in data set [10], 1000 nM; in data set [11], 9 µM; in data set [12], 477 nM. Also, affinity in data set [13] was put at a Ki of 5000 nM. In addition, the “selectivity α7/α4β2” value in [12] came to 63.
For `O=S1(=O)c2ccccc2-c2c(N3CCN4CCC3CC4)ccc(F)c21` [Compound 7e, 1-(1,4-Diazabicyclo[3.2.2]nonan-4-yl)-4-fluorodibenzo[b,d]-thiophene 5,5-Dioxide], the Ki is 17.8 nM and 20.3 nM in data set [4] (read-out: Ki α7-nAChR); 0.562 µM in [9] (setting [19]); 2000 nM in data set [10] (setting [19]); 0.261 µM in data set [11] (setting [19]); 4000 nM in [12] (setting [19]); 251 nM in data set [13] (setting [19]). Also, in data set [12], the “selectivity α7/α4β2” value is reported as 210.
With `Cc1nccn1CC1CCc2c(c3ccccc3n2C)C1=O` (centres unmarked) [ondansetron], the “effect on accumulation of [18F]7a in mouse brain” value in [14] is “absence of blockade”.
Consider `O=S1(=O)c2ccc(F)cc2-c2ccc(N3CCN4CCC3CC4)cc21` [Compound 7c, 7-(1,4-Diazabicyclo[3.2.2]nonan-4-yl)-2-fluorodibenzo[b,d]-thiophene 5,5-Dioxide], for which the Ki is 1.35 nM in [4] (Ki α7-nAChR); 1.3 nM in data set [4] (Ki α7-nAChR (text)); 1.32 nM in data set [4] (read-out: Ki α7-nAChR); 1000 nM in data set [8] (setting [19]); 8 µM in data set [9] (setting [19]); 2000 nM in [10] (setting [19]). Besides, the Ki in data set [11] (setting [19]) amounted to 5 µM; in data set [12] (setting [19]) it was 885 nM; in [13] (setting [19]), 3000 nM; in data set [15] (Human 5-HT3 recombinant/HEK293 cells, [3H]GR65630 (0.35 nM)), 505 nM. The “selectivity α7/α4β2” value in [12] turned out to be 663. The “selectivity α7/5HT3” value in [15] was 378. The “behavioral / locomotor activity changes” value in data set [5] was “Neither behavioral nor locomotor activity changes were observed”.
As for `[11CH3]N1CC2CN(c3ccc(-c4ccc5[nH]ccc5c4)nn3)CC2C1` (centres unmarked), the “BPND in cortex, Mice” value in data set [2] is 0.5.
`O=[N+]([O-])c1ccc2c(c1)-c1ccc(N3CCN4CCC3CC4)cc1S2(=O)=O` [Compound 11, 7-(1,4-Diazabicyclo[3.2.2]nonan-4-yl)-2-nitrodibenzo[b,d]-thiophene 5,5-Dioxide]: the Ki in data set [4] (read-out: Ki α7-nAChR) was 3.41 nM and 6.21 nM.
As for `O=S1(=O)c2cc(N3CCN4CCC3CC4)ccc2-c2cccc(I)c21` [Compound 14, 3-(1,4-Diazabicyclo[3.2.2]nonan-4-yl)-6-iododibenzo[b,d]-thiophene 5,5-Dioxide], in data set [4] (read-out: Ki α7-nAChR), the Ki worked out at 0.93 nM.
With `[18F]CCn1ccc2ccc(-c3nnc(N4CCN5CCC4CC5)o3)cc21`, the Ki in [1] is 2.5 nM.
Turning to `O=[N+]([O-])c1cccc2c1S(=O)(=O)c1cc(N3CCN4CCC3CC4)ccc1-2` [Compound 10, 3-(1,4-Diazabicyclo[3.2.2]nonan-4-yl)-6-nitrodibenzo[b,d]-thiophene 5,5-Dioxide], the Ki came out at 0.35 nM in [4] (Ki α7-nAChR) and 0.34 nM in data set [4] (read-out: Ki α7-nAChR).
For `O=[11C](Nc1ccc(Br)cc1)OC1CN2CCC1CC2` (centres unmarked), the “BPND in cortex, Mice” value in [2] is reported as roughly 0.3.
Take `[11CH3]N1CC2CN(c3ccc(-c4ccccc4)nn3)CC2C1` (centres unmarked): in data set [1], the Ki was 10.8 nM. Further, the “BPND in cortex, Mice” value in data set [2] was 0.2-0.5.
In the case of `O=S1(=O)c2ccccc2-c2ccc(N3CCN4CCC3CC4)c(F)c21` [Compound 7d, 3-(1,4-Diazabicyclo[3.2.2]nonan-4-yl)-4-fluorodibenzo[b,d]-thiophene 5,5-Dioxide], the Ki is 1.83 nM and 2.45 nM in [4] (read-out: Ki α7-nAChR); 292 nM in data set [8]; 0.838 µM in [9]; 678 nM in data set [10]; 3 µM in data set [11]; 141 nM in data set [12]. This compound showed a Ki in data set [13] of 1000 nM. In [12], the “selectivity α7/α4β2” value worked out at 66.
For the compound `O=S1(=O)c2cc(F)ccc2-c2ccc(N3CCN4CCC3CC4)cc21` [Compound 7b, 4-(7-Fluorodibenzo[b,d]thiophen-3-yl)-1,4-diazabicyclo-[3.2.2]nonane 5,5-Dioxide], in data set [4] (read-out: Ki α7-nAChR), the Ki is 1.02 nM and 1.37 nM.
On to `CN1CCCC1c1cccnc1` (centres unmarked) [nicotine], for which the “blockade of [18F]7a accumulation in mouse brain” value in data set [3] was “significant blockade in all regions except the nAChR-poor cerebellum”.
For `O=S1(=O)c2ccccc2-c2ccc(N3CCN4CCC3CC4)cc21` [Compound 5, 3-(1,4-diazabicyclo[3.2.2]nonan-4-yl)dibenzo[b,d]thiophene 5,5-dioxide, reference compound], the Ki in data set [4] (read-out: Ki α7-nAChR (reference compounds)) is 0.3 nM and 0.5 nM; in data set [16], 0.023 nM. For the same compound, the “blockade of [18F]7c accumulation in mouse brain” value in data set [17] was “dose dependent blockade”.
As to `[125I]c1occc1-c1cnc2c(c1)CC1(CN3CCC1CC3)O2` (centres unmarked), in [1], the Ki was 0.26 nM. Moreover, in data set [2], the “BPND in cortex, Mice” value is on record as 0.6.
`[18F]c1ccc(-c2nnc(N3CCN4CCC3CC4)o2)cc1`: in [2], the “BPND in cortex, Mice” value is reported as 0.4.

The values above are taken from patent US20170296682A1, “DERIVATIVES OF DIBENZOTHIOPHENE IMAGING OF alpha-7 NICOTINIC ACETYLCHOLINE RECEPTORS” (THE JOHNS HOPKINS UNIVERSITY, priority 2015, published 2017).
